In the NIST ThermoML archive (doi:10.1016/j.fluid.2014.09.024):

Tests used:
[1] = refractive index (Na D-line) (dimensionless); conditions: 323.15 K; 101 kPa; Liquid; Standard Abbe refractometry
[2] = for mass density: 101 kPa, Liquid, Vibrating tube method; for Normal melting temperature: Crystal, visual observation
[3] = refractive index (Na D-line) (dimensionless); xn = mol fraction of the nth substance listed; conditions: 323.15 K, 101 kPa, Liquid, Standard Abbe refractometry
[4] = xn = mol fraction of the nth substance listed; conditions: 323.15 K, 101 kPa, Liquid, Vibrating tube method

COc1ccccc1 [anisole]
Conditions	Normal melting temperature [°C]	refractive index
[1]	–	1.5012
[2]	-37.9	–

[2]
Conditions	mass density [kg/m3]
298.15 K	989.42
323.15 K	965.35

COc1ccccc1 [anisole] + COC(=O)OC
Conditions	mass density, [4] [kg/m3]	refractive index, [3]
x2 = 0	965.35	1.5012
x2 = 0.05	967.83	1.4963
x2 = 0.1001	970.34	1.4908
x2 = 0.2001	975.5	1.4795
x2 = 0.3	980.89	1.4659
x2 = 0.4	986.63	1.4516
x2 = 0.5	992.69	1.437
x2 = 0.5999	999.08	1.4226
x2 = 0.7	1005.87	1.4087
x2 = 0.8	1013.1	1.393
x2 = 0.9	1020.95	1.3754
x2 = 0.95	1025.2	1.3655

COc1ccccc1 [anisole] + Oc1ccccc1
Conditions	mass density, [4] [kg/m3]	refractive index, [3]
x1 = 0.05	1044.95	1.535
x1 = 0.1001	1040.35	1.5333
x1 = 0.2	1031.27	1.5296
x1 = 0.3	1022.44	1.5259
x1 = 0.4	1013.68	1.522
x1 = 0.5	1005.11	1.5183
x1 = 0.6103	995.89	1.5144
x1 = 0.7	988.65	1.5114
x1 = 0.8	980.8	1.508
x1 = 0.9001	973.1	1.5047
x1 = 0.9498	969.31	1.503
x1 = 1	965.35	1.5012

COC(=O)OC [dimethyl carbonate]
Conditions	Normal melting temperature [°C]	refractive index
[1]	–	1.3546
[2]	5.1	–

[2]
Conditions	mass density [kg/m3]
298.15 K	1063.26
323.15 K	1029.81

COC(=O)OC [dimethyl carbonate] + COc1ccccc1
x1 = 1
Conditions	mass density [kg/m3]	refractive index
[3]	–	1.3546
[4]	1029.81	–

COC(=O)OC [dimethyl carbonate] + Oc1ccccc1
x1 = 1
Conditions	mass density [kg/m3]	refractive index
[3]	–	1.3546
[4]	1029.81	–

Oc1ccccc1 [phenol]
Conditions	Normal melting temperature [°C]	refractive index
[1]	–	1.5375
[2]	41.0	–

[2]
Conditions	mass density [kg/m3]
313.15 K	1058.51
323.15 K	1049.8

Oc1ccccc1 [phenol] + COC(=O)OC
Conditions	mass density, [4] [kg/m3]	refractive index, [3]
x2 = 0	1049.79	1.5375
x2 = 0.0469	1049.78	1.53
x2 = 0.1001	1049.78	1.5222
x2 = 0.2001	1049.38	1.5068
x2 = 0.3	1048.47	1.4912
x2 = 0.3999	1047.12	1.479
x2 = 0.5	1045.31	1.4698
x2 = 0.6	1043	1.4592
x2 = 0.7001	1040.26	1.4428
x2 = 0.8	1037.11	1.4169
x2 = 0.9	1033.66	1.384
x2 = 0.9499	1031.81	1.3675

Oc1ccccc1 [phenol] + COc1ccccc1
x2 = 0
Conditions	mass density [kg/m3]	refractive index
[3]	–	1.5375
[4]	1049.8	–
